The target of test [1] is T1, SARS-CoV-2 Spike-RBD (ancestral, WT) / ACE2 (Homo sapiens, UniProt Q9BYF1).
T1 construct: a SARS-CoV-2 RBD protein containing a C-terminal His tag; a full-length ACE2 peptide with a C-terminal Fc tag; purchased Sino Biological
As to the kind of experiment: biochemical. The class given is binding.

Test [2] concerns the target T2, SARS-CoV-2 Spike-RBD (lambda) / ACE2 (Homo sapiens, UniProt Q9BYF1).
T2 construct: a SARS-CoV-2 RBD protein containing a C-terminal His tag; a full-length ACE2 peptide with a C-terminal Fc tag; purchased Sino Biological
As to the kind of experiment: biochemical. It counts as binding.

Where two headings read alike, the source gives them in different places.

T1 sequence (Q9BYF1 18-740): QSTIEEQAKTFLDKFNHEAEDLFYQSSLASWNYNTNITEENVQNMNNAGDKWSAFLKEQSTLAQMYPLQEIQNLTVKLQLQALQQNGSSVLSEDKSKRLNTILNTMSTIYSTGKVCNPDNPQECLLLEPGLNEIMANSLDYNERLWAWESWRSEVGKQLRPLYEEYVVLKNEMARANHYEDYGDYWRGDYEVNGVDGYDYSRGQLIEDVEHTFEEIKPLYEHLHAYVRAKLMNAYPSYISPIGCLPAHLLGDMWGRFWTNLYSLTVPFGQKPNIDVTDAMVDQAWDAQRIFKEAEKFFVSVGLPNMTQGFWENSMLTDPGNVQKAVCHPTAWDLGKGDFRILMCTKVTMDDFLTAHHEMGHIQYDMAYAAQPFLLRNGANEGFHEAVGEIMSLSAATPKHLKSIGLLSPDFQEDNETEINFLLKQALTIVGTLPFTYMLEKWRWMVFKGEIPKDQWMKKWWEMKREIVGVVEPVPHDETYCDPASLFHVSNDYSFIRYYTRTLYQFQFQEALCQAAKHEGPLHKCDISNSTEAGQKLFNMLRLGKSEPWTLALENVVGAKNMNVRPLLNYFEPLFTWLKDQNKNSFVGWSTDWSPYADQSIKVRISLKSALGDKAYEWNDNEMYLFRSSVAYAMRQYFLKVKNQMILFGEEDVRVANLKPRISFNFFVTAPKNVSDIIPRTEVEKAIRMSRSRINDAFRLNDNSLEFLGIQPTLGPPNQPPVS
T2 sequence (Q9BYF1 18-740): as above

Take REGN10933: the IC50 in test [1] (read-out: IC50 spike RBD/ACE2 binding, WT RBD sequence) stood at 1.3 nM. Take `O=C1Nc2ccc(Cl)cc2C1=NNc1ccc([N+](=O)[O-])cc1[N+](=O)[O-]` [H2L, 5-chloro-3-(2-(2,4-dinitrophenyl)hydrazono)indolin-2-one]: the IC50 in test [1] (IC50 spike RBD/ACE2 binding, WT RBD sequence) was determined as 448 nM. The “fold difference in IC50 for any variant versus WT RBD” value in test [2] is on record as at most 1.4 fold.
